In PubChem BioAssay (NCI):
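Following 48 hours of exposure in 96-well plates, responses at five concentrations were used to interpolate endpoints linearly. The concentration for 50% growth inhibition is given as GI50. At the TGI there is no net growth.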

What was measured:
Experiment in all cases: NCI anticancer screen, dose series, 48 h
[1] = tested on: 786-0 renal
[2] = tested on: A498 renal
[3] = tested on: A549 NSCLC
[4] = tested on: ACHN renal
[5] = tested on: BT-549 breast
[6] = tested on: CAKI-1 renal
[7] = tested on: CCRF-CEM leukemia
[8] = tested on: COLO 205 colon
[9] = tested on: DU-145 prostate
[10] = tested on: EKVX NSCLC
[11] = tested on: HCC-2998 colon
[12] = tested on: HCT-116 colon
[13] = tested on: HCT-15 colon
[14] = tested on: HL-60(TB) leukemia
[15] = tested on: HOP-62 NSCLC
[16] = tested on: HOP-92 NSCLC
[17] = tested on: HS 578T breast
[18] = tested on: HT29 colon
[19] = tested on: IGROV1 ovarian
[20] = tested on: K-562 leukemia
[21] = tested on: KM12 colon
[22] = tested on: LOX IMVI melanoma
[23] = tested on: M14 melanoma
[24] = tested on: MALME-3M melanoma
[25] = tested on: MCF7 breast
[26] = tested on: MDA-MB-231 breast
[27] = tested on: MDA-MB-435
[28] = tested on: MOLT-4 leukemia
[29] = tested on: NCI-H226 lung
[30] = tested on: NCI-H23 lung
[31] = tested on: NCI-H460 lung
[32] = tested on: NCI-H522 lung
[33] = tested on: NCI/ADR-RES ovarian
[34] = tested on: OVCAR-3 ovarian
[35] = tested on: OVCAR-4 ovarian
[36] = tested on: OVCAR-5 ovarian
[37] = tested on: OVCAR-8 ovarian
[38] = tested on: PC-3 prostate
[39] = tested on: RXF 393 renal
[40] = tested on: SF-268 CNS
[41] = tested on: SF-295 CNS
[42] = tested on: SF-539 CNS
[43] = tested on: SK-MEL-2 melanoma
[44] = tested on: SK-MEL-28 melanoma
[45] = tested on: SK-MEL-5 melanoma
[46] = tested on: SK-OV-3 ovarian
[47] = tested on: SN12C renal
[48] = tested on: SNB-19 CNS
[49] = tested on: SNB-75 CNS
[50] = tested on: SR leukemia
[51] = tested on: SW-620 colon
[52] = tested on: T-47D breast
[53] = tested on: TK-10 renal
[54] = tested on: U251 CNS
[55] = tested on: UACC-257 melanoma
[56] = tested on: UACC-62 melanoma
[57] = tested on: UO-31 renal

Question: Which GI50 [1] does the source give for `CCCCCc1ccc(S(=O)(=O)Nc2cc(-c3csc(NC(C)=O)n3)ccc2N2CCN(C)CC2)cc1` here?
Answer: The GI50 was 4.9 µM.

Question: And the TGI [1]?
Answer: Its TGI is 11.1 µM.

Question: And the GI50 [2]?
Answer: Its GI50 is 6.23 µM.

Question: What about the TGI [2] of the same compound?
Answer: The TGI was 11.3 µM.

Question: What about the GI50 [3] of the same compound?
Answer: Its GI50 is 5.11 µM.

Question: And the TGI [3]?
Answer: Its TGI is 11.8 µM.

Question: What about the GI50 [4] of the same compound?
Answer: The GI50 was 4.87 µM.

Question: What about the TGI [4] of the same compound?
Answer: Its TGI is 9.24 µM.

Question: What about the GI50 [5] of the same compound?
Answer: Its GI50 is 4.98 µM.

Question: What about the TGI [5] of the same compound?
Answer: The TGI was 10.1 µM.

Question: What about the GI50 [6] of the same compound?
Answer: Its GI50 is 4.84 µM.

Question: And the TGI [6]?
Answer: The TGI was 9.48 µM.

Question: And the GI50 [7]?
Answer: The GI50 was 4.82 µM.

Question: And the TGI [7]?
Answer: The TGI was 20.3 µM.

Question: And the GI50 [8]?
Answer: The GI50 was 5.16 µM.

Question: What about the TGI [8] of the same compound?
Answer: Its TGI is 11.8 µM.

Question: And the GI50 [9]?
Answer: Its GI50 is 5.16 µM.

Question: What about the TGI [9] of the same compound?
Answer: Its TGI is 9.8 µM.

Question: And the GI50 [10]?
Answer: The GI50 was 5.65 µM.

Question: What about the TGI [10] of the same compound?
Answer: The TGI was 10.7 µM.

Question: And the GI50 [11]?
Answer: The GI50 was 1.62 µM.

Question: And the TGI [11]?
Answer: Its TGI is 5.47 µM.

Question: And the GI50 [12]?
Answer: The GI50 was 1.11 µM.

Question: What about the TGI [12] of the same compound?
Answer: The TGI was 4.43 µM.

Question: And the GI50 [13]?
Answer: The GI50 was 1.08 µM.

Question: And the TGI [13]?
Answer: Its TGI is 4.49 µM.

Question: What about the GI50 [14] of the same compound?
Answer: The GI50 was 1.37 µM.

Question: What about the TGI [14] of the same compound?
Answer: Its TGI is 6.09 µM.

Question: What about the GI50 [15] of the same compound?
Answer: Its GI50 is 5.51 µM.

Question: What about the TGI [15] of the same compound?
Answer: Its TGI is 12.2 µM.

Question: What about the GI50 [16] of the same compound?
Answer: The GI50 was 3.68 µM.

Question: And the TGI [16]?
Answer: Its TGI is 8.84 µM.

Question: And the GI50 [17]?
Answer: The GI50 was 5.12 µM.

Question: What about the TGI [17] of the same compound?
Answer: The TGI was 13.4 µM.

Question: And the GI50 [18]?
Answer: The GI50 was 1.99 µM.

Question: And the TGI [18]?
Answer: The TGI was 8.29 µM.

Question: What about the GI50 [19] of the same compound?
Answer: The GI50 was 4.67 µM.

Question: What about the TGI [19] of the same compound?
Answer: Its TGI is 9.46 µM.

Question: What about the GI50 [20] of the same compound?
Answer: The GI50 was 1.03 µM.

Question: And the TGI [20]?
Answer: Its TGI is 3.4 µM.

Question: What about the GI50 [21] of the same compound?
Answer: Its GI50 is 5.65 µM.

Question: What about the TGI [21] of the same compound?
Answer: Its TGI is 11 µM.

Question: What about the GI50 [22] of the same compound?
Answer: The GI50 was 0.648 µM.

Question: And the TGI [22]?
Answer: The TGI was 1.35 µM.

Question: What about the GI50 [23] of the same compound?
Answer: Its GI50 is 2 µM.

Question: And the TGI [23]?
Answer: Its TGI is 7.73 µM.

Question: And the GI50 [24]?
Answer: Its GI50 is 4.05 µM.

Question: And the TGI [24]?
Answer: The TGI was 9.11 µM.

Question: And the GI50 [25]?
Answer: Its GI50 is 1.6 µM.

Question: And the TGI [25]?
Answer: The TGI was 6.45 µM.

Question: What about the GI50 [26] of the same compound?
Answer: Its GI50 is 4.75 µM.

Question: What about the TGI [26] of the same compound?
Answer: The TGI was 9.91 µM.

Question: And the GI50 [27]?
Answer: Its GI50 is 4.85 µM.

Question: What about the TGI [27] of the same compound?
Answer: Its TGI is 9.5 µM.

Question: And the GI50 [28]?
Answer: Its GI50 is 2.43 µM.

Question: And the TGI [28]?
Answer: The TGI was 8.33 µM.

Question: What about the GI50 [29] of the same compound?
Answer: Its GI50 is 4.94 µM.

Question: And the TGI [29]?
Answer: Its TGI is 10.7 µM.

Question: What about the GI50 [30] of the same compound?
Answer: Its GI50 is 4.78 µM.

Question: And the TGI [30]?
Answer: The TGI was 9.53 µM.

Question: What about the GI50 [31] of the same compound?
Answer: Its GI50 is 4.77 µM.

Question: And the TGI [31]?
Answer: Its TGI is 9.9 µM.

Question: And the GI50 [32]?
Answer: The GI50 was 6.35 µM.

Question: What about the TGI [32] of the same compound?
Answer: The TGI was 13 µM.

Question: What about the GI50 [33] of the same compound?
Answer: Its GI50 is 4.54 µM.

Question: What about the TGI [33] of the same compound?
Answer: Its TGI is 9.18 µM.

Question: And the GI50 [34]?
Answer: The GI50 was 4.92 µM.

Question: What about the TGI [34] of the same compound?
Answer: The TGI was 9.64 µM.

Question: And the GI50 [35]?
Answer: Its GI50 is 5.44 µM.

Question: And the TGI [35]?
Answer: The TGI was 10.3 µM.

Question: And the GI50 [36]?
Answer: Its GI50 is 5 µM.

Question: What about the TGI [36] of the same compound?
Answer: The TGI was 9.55 µM.

Question: And the GI50 [37]?
Answer: The GI50 was 5.82 µM.

Question: What about the TGI [37] of the same compound?
Answer: Its TGI is 13.1 µM.

Question: What about the GI50 [38] of the same compound?
Answer: Its GI50 is 2.23 µM.

Question: And the TGI [38]?
Answer: The TGI was 7.72 µM.

Question: What about the GI50 [39] of the same compound?
Answer: The GI50 was 3.66 µM.

Question: And the TGI [39]?
Answer: The TGI was 8 µM.

Question: And the GI50 [40]?
Answer: The GI50 was 5.52 µM.

Question: What about the TGI [40] of the same compound?
Answer: Its TGI is 11.6 µM.

Question: What about the GI50 [41] of the same compound?
Answer: The GI50 was 4.9 µM.

Question: And the TGI [41]?
Answer: The TGI was 9.59 µM.

Question: What about the GI50 [42] of the same compound?
Answer: The GI50 was 4.98 µM.

Question: What about the TGI [42] of the same compound?
Answer: Its TGI is 9.63 µM.

Question: And the GI50 [43]?
Answer: The GI50 was 5.76 µM.

Question: And the TGI [43]?
Answer: Its TGI is 12.6 µM.

Question: And the GI50 [44]?
Answer: The GI50 was 3.46 µM.

Question: What about the TGI [44] of the same compound?
Answer: The TGI was 7.49 µM.

Question: And the GI50 [45]?
Answer: Its GI50 is 5.28 µM.

Question: And the TGI [45]?
Answer: The TGI was 9.79 µM.

Question: What about the GI50 [46] of the same compound?
Answer: The GI50 was 5.95 µM.

Question: What about the TGI [46] of the same compound?
Answer: The TGI was 11.5 µM.

Question: And the GI50 [47]?
Answer: Its GI50 is 4.7 µM.

Question: What about the TGI [47] of the same compound?
Answer: Its TGI is 9.25 µM.

Question: What about the GI50 [48] of the same compound?
Answer: The GI50 was 5.49 µM.

Question: And the TGI [48]?
Answer: The TGI was 10.4 µM.

Question: What about the GI50 [49] of the same compound?
Answer: The GI50 was 3.67 µM.

Question: And the TGI [49]?
Answer: Its TGI is 7.98 µM.

Question: And the GI50 [50]?
Answer: The GI50 was 0.929 µM.

Question: And the TGI [50]?
Answer: The TGI was 2.77 µM.

Question: And the GI50 [51]?
Answer: Its GI50 is 1.31 µM.

Question: And the TGI [51]?
Answer: Its TGI is 4.72 µM.

Question: What about the GI50 [52] of the same compound?
Answer: Its GI50 is 4.8 µM.

Question: And the TGI [52]?
Answer: The TGI was 11.7 µM.

Question: And the GI50 [53]?
Answer: Its GI50 is 6.09 µM.

Question: And the TGI [53]?
Answer: The TGI was 11.7 µM.

Question: And the GI50 [54]?
Answer: Its GI50 is 3.78 µM.

Question: What about the TGI [54] of the same compound?
Answer: Its TGI is 8.93 µM.

Question: What about the GI50 [55] of the same compound?
Answer: Its GI50 is 4.48 µM.

Question: What about the TGI [55] of the same compound?
Answer: Its TGI is 11.4 µM.

Question: What about the GI50 [56] of the same compound?
Answer: Its GI50 is 3.83 µM.

Question: What about the TGI [56] of the same compound?
Answer: Its TGI is 8.04 µM.

Question: And the GI50 [57]?
Answer: The GI50 was 3.53 µM.

Question: What about the TGI [57] of the same compound?
Answer: The TGI was 7.57 µM.
